Where two headings read alike, the source gives them in different places.
Legend:
dextranase = biological target: T1, dextranase (Arthrobacter sp., UniProt P39652); assay: Effects of metallic ions and enzyme inhibitors on dextranase activity; assay type: biochemical, Arthrobacter sp. CB-8; settings: for inhibition of dextranase (in words): summary of Table 6; for activity at 1000 µM: read-out: Relative activity (%) of dextranase
T1 construct: the mature dextranase protein consisting of 591 amino acid residues; endogenous in cells; host or cells: Arthrobacter sp; CB-8 (FERM BP-995), enzyme purified from the culture
T1 sequence (P39652 50-640): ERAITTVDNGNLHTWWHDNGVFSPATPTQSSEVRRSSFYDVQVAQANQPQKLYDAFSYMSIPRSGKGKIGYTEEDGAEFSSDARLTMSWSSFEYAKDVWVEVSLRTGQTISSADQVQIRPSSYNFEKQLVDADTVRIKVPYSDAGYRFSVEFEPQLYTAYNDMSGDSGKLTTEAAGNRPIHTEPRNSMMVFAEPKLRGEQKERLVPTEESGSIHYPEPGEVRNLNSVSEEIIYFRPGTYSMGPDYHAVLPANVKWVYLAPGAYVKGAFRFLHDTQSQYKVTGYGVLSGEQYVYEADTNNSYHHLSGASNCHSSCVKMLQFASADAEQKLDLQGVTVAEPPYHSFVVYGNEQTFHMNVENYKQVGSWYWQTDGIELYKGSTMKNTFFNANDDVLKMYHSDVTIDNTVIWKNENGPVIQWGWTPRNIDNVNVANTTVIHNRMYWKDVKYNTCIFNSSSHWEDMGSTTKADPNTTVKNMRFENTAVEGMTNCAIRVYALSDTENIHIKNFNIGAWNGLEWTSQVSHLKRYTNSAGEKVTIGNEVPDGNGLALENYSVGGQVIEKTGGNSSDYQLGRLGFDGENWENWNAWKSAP
Description: 0.1 ml of the enzyme solution is added to 0.9 ml of 50 mM phosphate buffer, pH 6.5, containing 0.555% dextran (molecular weight: 10,000~20,000),and the mixture is incubated at 37° C. for 30 minutes. After the reaction is stopped, the amount of reducing sugar produced is measured by Somogyi-Nelson method. The enzymatic activity which increases a reducing power equivalent to 1 μ mole of glucose per 1 minute was defined as one unit.

α-1,3 glucanase I = assay: Effects of metallic ions and enzyme inhibitors on α-1,3 glucanase I; assay type: biochemical, Bacillus circulans BC-8
Description: (§1) Both α-1,3 glucanase I and II are inhibited by Fe^2+, Pb^2+, and […].
(§2) 0.1 ml of α-1,3 glucanase solution was added to 0.2 ml of 1.3-α-D glucan suspension (6 mg/ml, 50 mM phosphate buffer, pH 7.0), and the mixture was incubated for 16 hours at 40° C. The reaction was terminated by adding ethanol (final concentration was 60%), and amount of the sugar which had become soluble in this condition was determined by the phenol sulfuric acid method.
(§3) Under the above-mentioned reaction conditions, the enzyme activity which produced an amount of sugar soluble in 60% ethanol and corresponding to 100 nmol of glucose was defined as one unit. In practice, α-1,3 glucanase solutions of various concentrations were used for developing the standard curve, and the enzyme activity was read out on it.

α-1,3 glucanase II = assay: Effects of metallic ions and enzyme inhibitors on α-1,3 glucanase II; assay type: biochemical, Bacillus circulans BC-8
Description: as §1, §2, §3

[1] = metallic ion or inhibitor 1 mM, none = 100
[2] = metallic ion or inhibitor 0.1 mM, none = 100

SMILES	Relative activity (%) of dextranase (dextranase; [1])	inhibition of α-1,3 glucanase I enzymatic activity (α-1,3 glucanase I)	inhibition of α-1,3 glucanase II enzymatic activity (α-1,3 glucanase II)	other results
[Cl-].[Cl-].[Zn+2] [ZnCl2]	77%	–	–	–
[Cl][Hg][Cl] [HgCl2]	–	significant inhibition	significant inhibition	Relative activity (%) of dextranase (dextranase; [2]): 0%; inhibition of dextranase (in words) (dextranase): significantly inhibited
O=[N+]([O-])[O-].[Ag+] [AgNO3]	–	significant inhibition	significant inhibition	Relative activity (%) of dextranase (dextranase; [2]): 0%; inhibition of dextranase (in words) (dextranase): significantly inhibited
[Cl][Mn][Cl] [MnCl2]	77%	–	–	–
[Cl-].[Na+] [NaCl]	–	–	–	Relative activity (%) of dextranase (dextranase): 100%
O=S(=O)([O-])[O-].[Mg+2] [MgSO4]	113%	–	–	–
[Cl][Fe]([Cl])[Cl] [FeCl3]	104%	–	–	–
O=C(O)CN(CCN(CC(=O)O)CC(=O)O)CC(=O)O [EDTA]	–	–	–	activity at 1000 µM (dextranase): 122%
O=S(=O)([O-])[O-].[Cu+2] [CuSO4]	–	–	–	Relative activity (%) of dextranase (dextranase; [2]): 7%; inhibition of dextranase (in words) (dextranase): significantly inhibited
c1cnc2c(c1)ccc1cccnc12 [o-Phenanthroline]	–	–	–	activity at 1000 µM (dextranase; [1]): 100%
[Cl][Pb][Cl] [PbCl2]	103%	inhibited	inhibited	–
O=C(O)c1cc[c]([Hg][Cl])cc1 [pCMB, p-chloromercuribenzoic acid]	29%	significant inhibition	significant inhibition	inhibition of dextranase (in words) (dextranase): inhibited strongly
[Cl][Fe][Cl] [FeCl2]	115%	inhibited	inhibited	–
[Ca+2].[Cl-].[Cl-] [CaCl2]	113%	–	–	–
[Cl-].[K+] [KCl]	–	–	–	Relative activity (%) of dextranase (dextranase; metallic ion or inhibitor 10 mM, none = 100): 113%

Reference: patent US5306639A, “DNA encoding glucanase enzymes” (priority 1985, dated 1994)
